These results are taken from patent publication US11584744B2 (UNIVERSITY OF WASHINGTON, priority 2017, dated 2023).

The EC50 is the midpoint of the concentration-response curve. Broadly, the IC50 is the concentration that inhibits the measured activity by half. In general, MIC refers to the smallest concentration in the dilution series that meets the test's criterion for growth inhibition.

The test system of one experiment is T. brucei. As to the kind of experiment: T. brucei growth inhibition. It counts as cell-based, Trypanosoma brucei. Particulars: Trypanosoma brucei; read-out: (D) T. brucei EC50.
In a further experiment the test system is T. cruzi. In words: T. cruzi growth inhibition. It counts as cell-based, Trypanosoma cruzi. Particulars: read-out: (E) T. cruzi EC50.
The next experiment concerns the target MetRS (C. parvum) (Cryptosporidium parvum, UniProt Q5CVN0). In words: MetRS (C. parvum) enzyme inhibition. It counts as biochemical. Particulars: read-out: (C) MetRS (C. parvum) IC50.
The target in the next experiment is T1, MetRS (T. brucei) (Trypanosoma brucei brucei, UniProt Q38C91).
T1 sequence (Q38C91 1-773): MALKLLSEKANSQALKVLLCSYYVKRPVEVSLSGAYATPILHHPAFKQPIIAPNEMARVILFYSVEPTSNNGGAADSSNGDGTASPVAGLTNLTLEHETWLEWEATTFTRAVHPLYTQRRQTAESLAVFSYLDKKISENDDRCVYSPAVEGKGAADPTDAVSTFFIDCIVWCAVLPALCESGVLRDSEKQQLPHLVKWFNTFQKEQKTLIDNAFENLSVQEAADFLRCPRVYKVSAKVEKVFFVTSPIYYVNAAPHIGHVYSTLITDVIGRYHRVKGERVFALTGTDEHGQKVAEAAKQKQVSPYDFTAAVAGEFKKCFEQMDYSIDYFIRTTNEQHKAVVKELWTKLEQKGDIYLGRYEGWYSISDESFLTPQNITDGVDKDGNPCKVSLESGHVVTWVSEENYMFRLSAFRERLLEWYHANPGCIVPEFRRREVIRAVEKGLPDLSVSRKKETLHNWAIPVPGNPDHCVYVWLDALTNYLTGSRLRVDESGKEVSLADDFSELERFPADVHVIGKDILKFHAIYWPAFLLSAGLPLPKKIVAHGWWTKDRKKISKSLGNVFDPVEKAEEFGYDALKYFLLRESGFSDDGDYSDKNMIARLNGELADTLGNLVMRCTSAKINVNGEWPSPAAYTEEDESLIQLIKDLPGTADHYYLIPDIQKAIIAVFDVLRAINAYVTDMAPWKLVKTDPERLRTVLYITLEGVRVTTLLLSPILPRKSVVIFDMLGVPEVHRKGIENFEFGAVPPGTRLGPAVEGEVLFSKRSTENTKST
As to the kind of experiment: MetRS (T. brucei) enzyme inhibition. It counts as biochemical.

The subject of experiment [1] is S. aureus MSSA (ATCC 29213). As to the kind of experiment: MIC susceptibility testing. It counts as cell-based, Staphylococcus aureus. Particulars: S. aureus ATCC 29213; for MIC: Staphylococcus aureus, read-out: (F) S. aureus (ATCC 29213) MIC. An excerpt:
Media and culture conditions. Mueller Hinton broth (MHB), cation adjusted Mueller Hinton broth (CA-MHB), and Brain Heart Infusion broth (BHI) were purchased from Becton Dickinson (Franklin Lakes, N.J.). Tryptic soy agar (TSA) plates, TSA with 5% sheep blood plates, and CA-MHB with 3% laked horse blood were purchased from Remel (San Diego, Calif.). MHB was used to assay all Staphylococcus aureus strains. CA-MHB was used for Staphylococcus epidermidis, Enterococcus faecalis, Enterococcus faecium, Escherichia coli, and Pseudomonas aeruginosa. CA-MHB supplemented with 3% laked horse blood was used for Streptococcus pneumoniae and Streptococcus pyogenes. Staphylococcus, Enterococcus, Escherichia, and Pseudomonas strains were cultured at 37° C. with ambient air. Streptococcus strains were cultured in 37° C. with 5% CO2. Separate conditions for radiolabeled precursor uptake assays are described below.
Susceptibility testing: Minimum inhibitory concentration (MIC) determinations were performed in triplicate in 96-well round bottom microtiter plates (Corning, Corning N.Y.) as described by the Clinical and Laboratory Standards Institute (CLSI). Serial two-fold dilutions of compounds were added to plates in 50 μL volumes. An additional 50 μL of media containing bacterial cells (1×10^6 CFUs/mL) was then added to each well. Maximum DMSO concentrations were 0.5%. Plates were incubated at 37° C. for at least 18 h before reading the susceptibility result by optical absorbance (OD600) using a BioTek ELx800. The lowest concentration causing ≥90% growth inhibition compared to the untreated control was recorded as the MIC (and also corresponded to the visual MIC). MICs were measured at least twice and the higher value (if different) was recorded herein.

≈ marks a conversion by molar mass, not a printed value. Where “and” joins values, the source holds several entries; their conditions need not be identical. Equal values may be shown once. Read-outs that look alike come from different tables or passages of the source.

Chain of MetRS (C. parvum) (Q5CVN0 entry or part of it): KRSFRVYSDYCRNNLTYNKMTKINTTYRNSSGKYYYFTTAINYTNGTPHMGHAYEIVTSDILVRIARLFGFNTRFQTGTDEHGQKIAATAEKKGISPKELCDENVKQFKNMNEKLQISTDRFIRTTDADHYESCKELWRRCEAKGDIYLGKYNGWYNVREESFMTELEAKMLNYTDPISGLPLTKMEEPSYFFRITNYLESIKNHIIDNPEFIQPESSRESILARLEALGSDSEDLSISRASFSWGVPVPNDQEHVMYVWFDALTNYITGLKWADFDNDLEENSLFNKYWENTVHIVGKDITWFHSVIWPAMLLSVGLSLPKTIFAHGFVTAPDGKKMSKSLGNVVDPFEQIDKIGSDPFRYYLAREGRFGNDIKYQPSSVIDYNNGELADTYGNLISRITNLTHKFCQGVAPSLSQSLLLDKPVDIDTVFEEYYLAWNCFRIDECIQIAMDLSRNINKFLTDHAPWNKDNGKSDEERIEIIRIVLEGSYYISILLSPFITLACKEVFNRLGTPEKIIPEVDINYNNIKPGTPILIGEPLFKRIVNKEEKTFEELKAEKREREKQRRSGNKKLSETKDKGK

On to `Fc1ccc2nc(Cn3cc(Cc4ccc(Cl)cc4Cl)[nH]c3=S)[nH]c2n1` [Compound 2056, 5-(2,4-dichlorobenzyl)-3-((5-fluoro-3H-imidazo[4,5-b]pyridin-2-yl)methyl)-1H-imidazole-2(3H)-thione], for which the figures for the EC50 in the experiment with T. brucei and with T. cruzi (Trypanosoma cruzi) were 242 nM and 3720 nM, respectively. The figures for the IC50 at MetRS (C. parvum) and against MetRS (T. brucei) were 195 nM and < 40 nM, respectively.

For the compound `CCn1c(Cc2ccc(Cl)cc2Cl)cn(Cc2nc3ccccc3[nH]2)c1=O` [Compound 2068, 1-[(1H-1,3-benzodiazol-2-yl)methyl]-4-[(2,4-dichlorophenyl)methyl]-3-ethyl-2,3-dihydro-1H-imidazol-2-one], the EC50 in the experiment with T. brucei is 40.2 nM; in the experiment with T. cruzi (Trypanosoma cruzi) it was 1000 nM. In addition, the IC50 on MetRS (C. parvum) and at MetRS (T. brucei) was < 40 nM each time.

In the case of `O=c1n(Cc2nc3ccc(F)nc3[nH]2)cc(Cc2ccc(Cl)cc2Cl)n1C1CCCC1` [Compound 2081, 3-cyclopentyl-4-[(2,4-dichlorophenyl)methyl]-1-({5-fluoro-1H-imidazo[4,5-b]pyridin-2-yl}methyl)-2,3-dihydro-1H-imidazol-2-one], the EC50 in the experiment with T. cruzi (Trypanosoma cruzi) was 438 nM. Moreover, the minimal inhibitory concentration (MIC) in experiment [1] is 1.33 µg/mL (≈ 2.89 µM). For the same compound, the half-inhibitory concentration (IC50) on MetRS (C. parvum) and against MetRS (T. brucei) was < 40 nM throughout.

Regarding `CC(C)(C)n1c(Cc2ccc(Cl)cc2Cl)cn(Cc2nc3ccc(F)nc3[nH]2)c1=O` [Compound 2084, 3-tert-butyl-4-[(2,4-dichlorophenyl)methyl]-1-({5-fluoro-1H-imidazo[4,5-b]pyridin-2-yl}methyl)-2,3-dihydro-1H-imidazol-2-one], the EC50 with T. cruzi (Trypanosoma cruzi) is 608 nM. Moreover, in experiment [1], the MIC came out at 2.04 µg/mL (≈ 4.55 µM). Further, the half-inhibitory concentration (IC50) at MetRS (C. parvum) and against MetRS (T. brucei) was < 40 nM each time.

`CCn1c(Cc2ccc(Cl)cc2Cl)cn(Cc2nc3ccc(C)nc3[nH]2)c1=O` [Compound 2092, 4-[(2,4-dichlorophenyl)methyl]-3-ethyl-1-({5-methyl-1H-imidazo[4,5-b]pyridin-2-yl}methyl)-2,3-dihydro-1H-imidazol-2-one]: the concentration giving a half-maximal response (EC50) in the experiment on T. cruzi (Trypanosoma cruzi) stood at 502 nM. Moreover, the minimum inhibitory concentration (MIC) in experiment [1] was > 2.5 µg/mL. Moreover, the results for the half-maximal inhibitory concentration (IC50) on MetRS (C. parvum) and on MetRS (T. brucei) were 47.5 nM and < 40 nM, respectively.

As for `CCn1c(Cc2ccc(Cl)cc2Cl)cn(Cc2nc3ccc(F)nc3[nH]2)c1=S` [Compound 2103, 4-[(2,4-dichlorophenyl)methyl]-3-ethyl-1-({5-fluoro-1H-imidazo[4,5-b]pyridin-2-yl}methyl)-2,3-dihydro-1H-imidazole-2-thione], the EC50 with T. brucei amounted to 113 nM; in the experiment on T. cruzi (Trypanosoma cruzi) it was 2930 nM. The IC50 on MetRS (C. parvum) worked out at 175 nM; against MetRS (T. brucei), 63 nM.

As to `CSc1nc(Cc2ccc(Cl)cc2Cl)cn1Cc1nc2ccc(F)nc2[nH]1` [Compound 2104, 4-[(2,4-dichlorophenyl)methyl]-1-({5-fluoro-1H-imidazo[4,5-b]pyridin-2-yl}methyl)-2-(methylsulfanyl)-1H-imidazole], the EC50 is 73.4 nM with T. brucei and 1480 nM with T. cruzi (Trypanosoma cruzi). For the same compound, the IC50 at MetRS (C. parvum) was 40.3 nM; against MetRS (T. brucei), < 40 nM.

In the case of `CSc1nc(Cc2ccc(Cl)cc2Cl)cn1Cc1nc2nc(Cl)ccc2[nH]1` [Compound 2109, 1-({5-chloro-1H-imidazo[4,5-b]pyridin-2-yl}methyl)-4-[(2,4-dichlorophenyl)methyl]-2-(methylsulfanyl)-1H-imidazole], the concentration for a half-maximal effect (EC50) in the experiment with T. brucei stood at 53.5 nM; with T. cruzi (Trypanosoma cruzi) it was 329 nM. The IC50 at MetRS (C. parvum) and against MetRS (T. brucei) was < 40 nM in each case.

As for `COc1ccc(-c2cnc(N)c3nc(Cc4nc5nc(Cl)ccc5[nH]4)cn23)c(Cl)c1` [Compound 2175, 2-({5-chloro-1H-imidazo[4,5-b]pyridin-2-yl}methyl)-5-(2-chloro-4-methoxyphenyl)imidazo[1,2-a]pyrazin-8-amine], the EC50 with T. cruzi (Trypanosoma cruzi) stood at 681 nM; in the experiment on T. cruzi, 638 nM. Also, the half-inhibitory concentration (IC50) at MetRS (C. parvum) was 41.7 nM; against MetRS (T. brucei), 72 nM and < 40 nM.

Turning to `CCn1cc(-c2ccc(OC)cc2Cl)c2c1CCN(Cc1nc3nc(Cl)ccc3[nH]1)C2` [Compound 2177, 5-chlor0-2-((3-(2-chloro-4-methoxyphenyl)-1-ethyl-6,7-dihydro-1H-pyrrolo[3,2-c]pyridin-5(4H)-yl)methyl)-1H-imidazo[4,5-b]pyridine], the results for the EC50 in the experiment with T. brucei and in the experiment with T. cruzi (Trypanosoma cruzi) were 92.5 nM and 409 nM, respectively. Moreover, the IC50 at MetRS (C. parvum) and against MetRS (T. brucei) was < 40 nM throughout.

With `CCNC(=O)Nc1ccc(-c2ccc(OC)cc2Cl)n2cc(Cc3nc4ccc(Cl)cc4[nH]3)nc12` [Compound 2182, 1-{2-[(6-chloro-1H-1,3-benzodiazol-2-yl)methyl]-5-(2-chloro-4-methoxyphenyl)imidazo[1,2-a]pyridin-8-yl}-3-ethylurea], the EC50 in the experiment on T. brucei came to 84 nM; in the experiment with T. cruzi (Trypanosoma cruzi), 647 nM. For the same compound, the 50% inhibitory concentration (IC50) at MetRS (C. parvum) was 42.1 nM; against MetRS (T. brucei), < 40 nM.

Consider `COc1ccc(-c2cnc(NC(C)=O)c3nc(Cc4nc5nc(Cl)ccc5[nH]4)cn23)c(Cl)c1` [Compound 2186, N-[2-({5-chloro-1H-imidazo[4,5-b]pyridin-2-yl}methyl)-5-(2-chloro-4-methoxyphenyl)imidazo[1,2-a]pyrazin-8-yl]acetamide], for which the half-maximal effective concentration (EC50) in the experiment on T. brucei came to 25 nM; in the experiment with T. cruzi (Trypanosoma cruzi) it was 360 nM. The “(F) S. aureus (ATCC 29213) MIC” value in experiment [1] worked out at 3.21 µg/mL. In addition, in experiment [1], the MIC was 3.8 µg/mL (≈ 7.88 µM). For the same compound, the figures for the IC50 on MetRS (C. parvum) and against MetRS (T. brucei) were 49.2 nM and 59 nM, respectively.

Turning to `CC(=O)Nc1nc(Cc2ccc(Cl)cc2Cl)cn1Cc1nc2ccc(Cl)cc2[nH]1` [Compound 2193, N-{1-[(6-chloro-1H-1,3-benzodiazol-2-yl)methyl]-4-[(2,4-dichlorophenyl)methyl]-1H-imidazol-2-yl}acetamide], the half-maximal effective concentration (EC50) in the experiment with T. brucei turned out to be 257 nM. Also, the 50% inhibitory concentration (IC50) on MetRS (C. parvum) was 232 nM; against MetRS (T. brucei), < 40 nM.

Regarding `Clc1ccc(Cc2cn(Cc3nc4ccc(Cl)cc4[nH]3)c(Br)n2)c(Cl)c1` [Compound 2194, 2-({2-bromo-4-[(2,4-dichlorophenyl)methyl]-1H-imidazol-1-yl}methyl)-6-chloro-1H-1,3-benzodiazole], the half-maximal effective concentration (EC50) in the experiment with T. brucei is > 2000 nM. Further, the half-inhibitory concentration (IC50) on MetRS (C. parvum) is > 1000 nM; at MetRS (T. brucei), > 10000 nM.

On to `OCCNc1nc(Cc2ccc(Cl)cc2Cl)cn1Cc1nc2ccc(Cl)cc2[nH]1` [Compound 2196, 2-({1-[(6-chloro-1H-1,3-benzodiazol-2-yl)methyl]-4-[(2,4-dichlorophenyl)methyl]-1H-imidazol-2-yl}amino)ethan-1-ol], for which, in the experiment with T. brucei, the EC50 was > 2000 nM. In addition, the concentration for half-maximal inhibition (IC50) at MetRS (C. parvum) was > 1000 nM; at MetRS (T. brucei) it was 1280 nM.

Consider `O=c1[nH]c(C(O)c2ccc(Cl)cc2Cl)cn1Cc1nc2nc(Cl)ccc2[nH]1` (stereo not drawn) [Compound 2202, 1-({5-chloro-1H-imidazo[4,5-b]pyridin-2-yl}methyl)-4-[(2,4-dichlorophenyl)(hydroxy)methyl]-2,3-dihydro-1H-imidazol-2-one], for which the values for the concentration for a half-maximal effect (EC50) in the experiment on T. brucei and in the experiment with T. cruzi (Trypanosoma cruzi) were 45.3 nM and 2710 nM, respectively. In addition, in experiment [1], the “(F) S. aureus (ATCC 29213) MIC” value is 13.2 µg/mL. Moreover, in experiment [1], the MIC was > 10 µg/mL. Also, the figures for the IC50 on MetRS (C. parvum) and on MetRS (T. brucei) were 213 nM and 55 nM, respectively.

Regarding `O=C(O)Cn1c(C(O)c2ccc(Cl)cc2Cl)cn(Cc2nc3ccc(Cl)nc3[nH]2)c1=O` (stereo not drawn) [Compound 2218, 2-(3-((5-chloro-3H-imidazo[4,5-b]pyridin-2-yl)methyl)-5((2,4-dichlorophenyl)(hydroxy)methyl)-2-oxo-2,3-dihydro-1H-imidazol-1-yl)acetic acid], the concentration for a half-maximal effect (EC50) is 718 nM with T. brucei and > 5000 nM with T. cruzi (Trypanosoma cruzi). Further, the values for the concentration for half-maximal inhibition (IC50) on MetRS (C. parvum) and against MetRS (T. brucei) were 40.1 nM and < 40 nM, respectively.
